Test results as given in patent publication US7473790B2 (Pfizer Inc., priority 2003, dated 2009).

biological target: T1, HCV polymerase (Hepatitis C virus genotype 1b, UniProt P26663); assay: HCV polymerase primer/template-directed transcription assay (32P-GTP incorporation, filter binding); assay type: biochemical; conditions: recombinant HCV polymerase; 30 minutes at 30° C.; concentration giving 50% inhibition of polymerase-directed transcription; read-out: IC50
T1 construct: 2.5 pmoles (0.15 μg) HCV polymerase protein in a final volume of 75 μL
In short: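 Recombinant genotype 1b polymerase (30 nM) extended biotin-dG12 primer on poly(rC)300 template with 1 μM GTP plus α-32P-GTP, pH 7.2, 10 mM MgCl2, 30 min at 30° C, 1% DMSO final. Products captured on DE filters and counted. IC50 fitted from triplicate cpm, with a tight-binding correction applied below 200 nM.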

T1 sequence (P26663 2420-3010): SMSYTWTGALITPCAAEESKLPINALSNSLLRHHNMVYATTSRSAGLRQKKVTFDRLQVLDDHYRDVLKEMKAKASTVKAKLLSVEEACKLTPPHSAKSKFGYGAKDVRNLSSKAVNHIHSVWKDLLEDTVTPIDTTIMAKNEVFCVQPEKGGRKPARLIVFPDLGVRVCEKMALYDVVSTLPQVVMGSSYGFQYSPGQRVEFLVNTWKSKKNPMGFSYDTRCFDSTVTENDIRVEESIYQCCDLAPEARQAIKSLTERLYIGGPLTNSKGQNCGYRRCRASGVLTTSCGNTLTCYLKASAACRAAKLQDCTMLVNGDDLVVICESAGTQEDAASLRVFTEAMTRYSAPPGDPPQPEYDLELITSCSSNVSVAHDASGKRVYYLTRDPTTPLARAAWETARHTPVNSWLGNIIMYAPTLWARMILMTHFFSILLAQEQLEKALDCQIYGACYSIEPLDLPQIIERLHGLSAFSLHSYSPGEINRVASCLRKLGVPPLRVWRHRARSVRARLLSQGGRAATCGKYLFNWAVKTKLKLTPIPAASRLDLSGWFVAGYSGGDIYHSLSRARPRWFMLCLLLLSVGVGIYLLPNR

| Structure (SMILES) | IC50 [nM] |
| --- | --- |
| COc1cccc(CC2=C(O)CC(CCc3ccc(C(C)(C)C#N)c(F)c3)(C3CCCC3)OC2=O)c1 (stereo not drawn) [A(100), 2-(4-{2-[2-cyclopentyl-4-hydroxy-5-(3-methoxybenzyl)-6-oxo-3,6-dihydro-2H-pyran-2-yl]ethyl}-2-fluorophenyl)-2-methylpropanenitrile] | 88 |
| CC(C)(C#N)c1ccc(CCC2(C3CCCC3)CC(O)=C(Cc3cccc(S(C)(=O)=O)c3)C(=O)O2)cc1F (stereo not drawn) [A(101), 2-[4-(2-{2-cyclopentyl-4-hydroxy-5-[3-(methylsulfonyl)benzyl]-6-oxo-3,6-dihydro-2H-pyran-2-yl}ethyl)-2-fluorophenyl]-2-methylpropanenitrile] | 66 |
| Cn1cc(Cl)c(CC2=C(O)CC(CCc3ccc(C(C)(C)C#N)c(F)c3)(C3CCCC3)OC2=O)n1 (stereo not drawn) [A(102), 2-[4-(2-{5-[(4-chloro-1-methyl-1H-pyrazol-3-yl)methyl]-2-cyclopentyl-4-hydroxy-6-oxo-3,6-dihydro-2H-pyran-2-yl}ethyl)-2-fluorophenyl]-2-methylpropanenitrile] | 5 |
| CC(C)(C#N)c1ccc(CCC2(C3CCCC3)CC(O)=C(Cc3cn4ccccc4n3)C(=O)O2)cc1F (stereo not drawn) [A(103), 2-(4-{2-[2-cyclopentyl-4-hydroxy-5-(imidazo[1,2-a]pyridin-2-ylmethyl)-6-oxo-3,6-dihydro-2H-pyran-2-yl]ethyl}-2-fluorophenyl)-2-methylpropanenitrile] | 180 |
| Cc1nc[nH]c1CC1C(=O)CC(CCc2ccc(C(C)(C)C#N)c(F)c2)(C2CCCC2)OC1=O (stereo not drawn) [A(107), 2-(4-{2-[2-Cyclopentyl-5-(5-methyl-3H-imidazol-4-ylmethyl)-4,6-dioxo-tetrahydro-pyran-2-yl]-ethyl}-2-fluoro-phenyl)-2-methyl-propionitrile] | 360 |
| CC(C)(C#N)c1ccc(CCC2(C3CCCC3)CC(=O)C(Cc3nc4ncc(Cl)cn4n3)C(=O)O2)cc1F (stereo not drawn) [A(111), 2-(4-{2-[5-(6-Chloro-[1,2,4]triazolo[1,5-a]pyrimidin-2-ylmethyl)-2-cyclopentyl-4,6-dioxo-tetrahydro-pyran-2-yl]-ethyl}-2-fluoro-phenyl)-2-methyl-propionitrile] | 2 |
| CCC(C#N)(CC)c1ccc(CCC2(C3CCCC3)CC(=O)C(Cc3nc4nc(C)cc(C)n4n3)C(=O)O2)cc1F (stereo not drawn) [A(112), 2-(4-{2-[2-Cyclopentyl-5-(5,7-dimethyl-[1,2,4]triazolo[1,5-a]pyrimidin-2-ylmethyl)-4,6-dioxo-tetrahydro-pyran-2-yl]-ethyl}-2-fluoro-phenyl)-2-ethyl-butyronitrile] | 6 |
| Cc1cnc2nc(CC3C(=O)CC(CCc4ccc(C5(C#N)CC5)c(F)c4)(C4CCCC4)OC3=O)nn2c1 (stereo not drawn) [A(113), 1-(4-{2-[2-Cyclopentyl-5-(6-methyl-[1,2,4]triazolo[1,5-a]pyrimidin-2-ylmethyl)-4,6-dioxo-tetrahydro-pyran-2-yl]-ethyl}-2-fluoro-phenyl)-cyclopropanecarbonitrile] | 8 |
| N#CC1(c2ccc(CCC3(C4CCCC4)CC(=O)C(Cc4nc5ncccn5n4)C(=O)O3)cc2F)CC1 (stereo not drawn) [A(114), 1-{4-[2-(2-Cyclopentyl-4,6-dioxo-5-[1,2,4]triazolo[1,5-a]pyrimidin-2-ylmethyl-tetrahydro-pyran-2-yl)-ethyl]-2-fluoro-phenyl}-cyclopropanecarbonitrile] | 10 |
| N#CC1(c2ccc(CCC3(C4CCCC4)CC(=O)C(Cc4nc5ncc(Cl)cn5n4)C(=O)O3)cc2F)CC1 (stereo not drawn) [A(115), 1-(4-{2-[5-(6-Chloro-[1,2,4]triazolo[1,5-a]pyrimidin-2-ylmethyl)-2-cyclopentyl-4,6-dioxo-tetrahydro-pyran-2-yl]-ethyl}-2-fluoro-phenyl)-cyclopropanecarbonitrile] | 5 |
| Cc1cc(C)n2nc(CC3=C(O)CC(CCc4ccc(CCO)c(F)c4)(C4CCCC4)OC3=O)nc2n1 (stereo not drawn) [A(119), 6-Cyclopentyl-3-(5,7-dimethyl-[1,2,4]triazolo[1,5-a]pyrimidin-2-ylmethyl)-6-{2-[3-fluoro-4-(2-hydroxy-ethyl)-phenyl]-ethyl}-4-hydroxy-5,6-dihydro-pyran-2-one] | 1200 |
| O=C1CC(=O)OC(CCc2ccc(CCO)c(F)c2)(C2CCCC2)C1 (stereo not drawn) [A(120)] | 13000 |
| CC(C)(CO)c1ccc(CCC2(C3CCCC3)CC(=O)CC(=O)O2)cc1F (stereo not drawn) [A(121), 6-Cyclopentyl-6-{2-[3-fluoro-4-(2-hydroxy-1,1-dimethyl-ethyl)-phenyl]-ethyl}-dihydro-pyran-2,4-dione] | 1300 |
| O=C1CC(=O)OC(CCc2cc(F)cc(F)c2)(C2CCCC2)C1 (stereo not drawn) [A(122), 6-Cyclopentyl-6-[2-(3,5-difluoro-phenyl)-ethyl]-dihydro-pyran-2,4-dione] | 31000 |
| CCc1cc(CCC2(C3CCCC3)CC(O)=C(Cc3nc4nc(C)cc(C)n4n3)C(=O)O2)cc(F)c1O (stereo not drawn) [A(123), 6-Cyclopentyl-3-(5,7-dimethyl-[1,2,4]triazolo[1,5-a]pyrimidin-2-ylmethyl)-6-[2-(3-ethyl-5-fluoro-4-hydroxy-phenyl)-ethyl]-4-hydroxy-5,6-dihydro-pyran-2-one] | 12 |
| CCc1cc(CCC2(C3CCCC3)CC(=O)CC(=O)O2)cc(F)c1O (stereo not drawn) [A(124), 6-Cyclopentyl-6-[2-(3-ethyl-5-fluoro-4-hydroxy-phenyl)-ethyl]-dihydro-pyran-2,4-dione] | 350 |
| CCc1cc(CCC2(C3CCCC3)CC(O)=C(Cc3nc4ncc(C)cn4n3)C(=O)O2)cc(F)c1O (stereo not drawn) [A(125), 6-Cyclopentyl-6-[2-(3-ethyl-5-fluoro-4-hydroxy-phenyl)-ethyl]-4-hydroxy-3-(6-methyl-[1,2,4]triazolo[1,5-a]pyrimidin-2-ylmethyl)-5,6-dihydro-pyran-2-one] | 11 |
| CCc1cc(CCC2(C3CCCC3)CC(O)=C(Cc3nc4ncc(C)cn4n3)C(=O)O2)ccc1O (stereo not drawn) [A(126), 6-Cyclopentyl-6-[2-(3-ethyl-4-hydroxy-phenyl)-ethyl]-4-hydroxy-3-(6-methyl-[1,2,4]triazolo[1,5-a]pyrimidin-2-ylmethyl)-5,6-dihydro-pyran-2-one] | 9 |
| CCc1cc(CCC2(C3CCCC3)CC(O)=C(Cc3nc4ncc(Cl)cn4n3)C(=O)O2)ccc1O (stereo not drawn) [A(127), 3-(6-Chloro-[1,2,4]triazolo[1,5-a]pyrimidin-2-ylmethyl)-6-cyclopentyl-6-[2-(3-ethyl-4-hydroxy-phenyl)-ethyl]-4-hydroxy-5,6-dihydro-pyran-2-one] | 5 |
| CCc1cc(CCC2(C3CCCC3)CC(=O)CC(=O)O2)ccc1OCCO (stereo not drawn) [A(128), 6-Cyclopentyl-6-{2-[3-ethyl-4-(2-hydroxy-ethoxy)-phenyl]-ethyl}-dihydro-pyran-2,4-dione] | 490 |
| O=C1CC(=O)OC(CCc2ccc(O)c(F)c2)(C2CCCC2)C1 (stereo not drawn) [A(129), 6-Cyclopentyl-6-[2-(3-fluoro-4-hydroxy-phenyl)-ethyl]-dihydro-pyran-2,4-dione] | 8900 |
| COc1ccc(CCC2(C3CCCC3)CC(=O)CC(=O)O2)cc1C1CC1 (stereo not drawn) [A(130), 6-Cyclopentyl-6-[2-(3-cyclopropyl-4-methoxy-phenyl)-ethyl]-dihydro-pyran-2,4-dione] | 1300 |
| Cc1cc(C)n2nc(CC3=C(O)CC(CCc4ccc(N(C)S(C)(=O)=O)c(F)c4)(C4CCCC4)OC3=O)nc2n1 (stereo not drawn) [A(131), 6-cyclopentyl-3-[(5,7-dimethyl[1,2,4]triazolo[1,5-a]pyrimidin-2-yl)methyl]-6-[2-(3-fluoro-4-{methyl[methyl(dimethylene)-I^6-sulfanyl]amino}phenyl)ethyl]-4-hydroxy-5,6-dihydro-2H-pyran-2-one] | 137 |
| CN(c1ccc(CCC2(C3CCCC3)CC(=O)CC(=O)O2)cc1F)S(C)(=O)=O (stereo not drawn) [A(132), 6-cyclopentyl-6-[2-(3-fluoro-4-{methyl[methyl(dimethylene)-6-sulfanyl]amino}phenyl)ethyl]dihydro-2H-pyran-2,4(3H)-dione] | 13000 |
| Cc1cc(C)n2nc(CC3=C(O)CC(CCc4ccc(N(C)S(C)(=O)=O)cc4)(C4CCCC4)OC3=O)nc2n1 (stereo not drawn) [A(133), 6-cyclopentyl-3-[(5,7-dimethyl[1,2,4]triazolo[1,5-a]pyrimidin-2-yl)methyl]-4-hydroxy-6-[2-(4-{methyl[methyl(dimethylene)-I^6-sulfanyl]amino}phenyl)ethyl]-5,6-dihydro-2H-pyran-2-one] | 72 |
| O=C1CC(=O)OC(CCc2ccc(N3CCCS3(=O)=O)c(F)c2)(C2CCCC2)C1 (stereo not drawn) [A(134), 6-cyclopentyl-6-{2-[4-(1,1-dioxidoisothiazolidin-2-yl)-3-fluorophenyl]ethyl}dihydro-2H-pyran-2,4(3H)-dione] | 38000 |
| Cc1cc(C)n2nc(CC3=C(O)CC(CCc4ccc(O)c(C5CCCC5)c4)(C4CCCC4)OC3=O)nc2n1 (stereo not drawn) [A(135), 6-cyclopentyl-6-[2-(3-cyclopentyl-4-hydroxyphenyl)ethyl]-3-[(5,7-dimethyl[1,2,4]triazolo[1,5-a]pyrimidin-2-yl)methyl]-4-hydroxy-5,6-dihydro-2H-pyran-2-one] | 15 |
| CCCc1cc(CCC2(C3CCCC3)CC(O)=C(Cc3nc4nc(C)cc(C)n4n3)C(=O)O2)ccc1O (stereo not drawn) [A(136), 6-cyclopentyl-3-[(5,7-dimethyl[1,2,4]triazolo[1,5-a]pyrimidin-2-yl)methyl]-4-hydroxy-6-[2-(4-hydroxy-3-propylphenyl)ethyl]-5,6-dihydro-2H-pyran-2-one] | 2 |
| CCCc1cc(CCC2(C3CCCC3)CC(O)=C(Cc3nc4nc(CC)cc(CC)n4n3)C(=O)O2)ccc1O (stereo not drawn) [A(137), 6-cyclopentyl-3-[(5,7-dietylphenyl)ethyl]-5,6-hyl[1,2,4]triazolo[1,5-a]pyrimidin-2-yl)methyl]-4-hydroxy-6-[2-(4-hydroxy-3-propdihydro-2H-pyran-2-one] | 7 |
| CCc1cc(CC)n2nc(CC3C(=O)CC(CCc4ccc(O)c(CC)c4)(C4CCCC4)OC3=O)nc2n1 (stereo not drawn) [A(138), 6-cyclopentyl-3-[(5,7-diethyl[1,2,4]triazolo[1,5-a]pyrimidin-2-yl)methyl]-6-[2-(3-ethyl-4-hydroxyphenyl)ethyl]-4-hydroxy-5,6-dihydro-2H-pyran-2-one] | 8 |
